From patent publication US10098350B2, “Fungicidal amides” (E. I. DU PONT DE NEMOURS AND COMPANY, priority 2013, dated 2018)

What was measured:
Assay type in all cases: in vivo
[1] = test system: Erysiphe graminis f. sp. tritici; experiment: Test E: wheat seedlings sprayed with test suspension, inoculated with Erysiphe graminis f. sp. tritici (wheat powdery mildew), visual disease rating
Excerpt: (§1) General protocol for preparing test suspensions for Tests A-E: the test compounds were first dissolved in acetone in an amount equal to 3% of the final volume and then suspended at the desired concentration (in ppm) in acetone and purified water (50/50 mix by volume) containing 250 ppm of the surfactant Trem® 014 (polyhydric alcohol esters). The resulting test suspensions were then used in Tests A-E. Samples were applied to plants at either a 10 ppm (**), 40 ppm, 50 ppm (*) or 200 ppm (#) test solution to the point of run-off on the test plants with the equivalent of a rate of 40 g ai/ha, 160 g ai/ha, 200 g ai/ha, or 800 g ai/ha, respectively.
The test suspension was sprayed to the point of run-off on wheat seedlings. The following day the seedlings were inoculated with a spore dust of Erysiphe graminis f. sp. tritici, (the causal agent of wheat powdery mildew) and incubated in a growth chamber at 20° C. for 7 or 8 days, after which time visual disease ratings were made.
(§2) Results for Tests A-E are given in Table A. In the Table, a rating of 100 indicates 100% disease control and a rating of 0 indicates no disease control (relative to the controls). A dash (-) indicates no test results.

[2] = test system: Puccinia recondite f. sp. tritici; experiment: Test D: wheat seedlings sprayed with test suspension, inoculated with Puccinia recondite f. sp. tritici (wheat leaf rust), visual disease rating
Excerpt: as §1
The test suspension was sprayed to the point of run-off on wheat seedlings. The following day the seedlings were inoculated with a spore suspension of Puccinia recondite f. sp. tritici; (the causal agent of wheat leaf rust) and incubated in a saturated atmosphere at 20° C. for 24 h, and then moved to a growth chamber at 20° C. for 6 days, after which time visual disease ratings were made.
as §2

Septoria tritici = experiment: Test C: wheat seedlings sprayed with test suspension, inoculated with Septoria tritici (wheat leaf blotch), visual disease rating
Excerpt: as §1
The test suspension was sprayed to the point of run-off on wheat seedlings. The following day the seedlings were inoculated with a spore suspension of Septoria tritici (the causal agent of wheat leaf blotch) and incubated in a saturated atmosphere at 24° C. for 48 h, and then moved to a growth chamber at 20° C. for 21 days, after which time visual disease ratings were made.
as §2

[3] = Cmpd. No. marked '**' (other test rate; meaning of mark not shown)
[4] = Cmpd. No. unmarked, 100 = 100% disease control, 0 = no control relative to controls
[5] = Cmpd. No. marked '*' (other test rate; meaning of mark not shown)

SMILES | Test E rating (% disease control) [1, 3] | Test D rating (% disease control) [2, 3] | Test C rating (% disease control) (Septoria tritici; [3]) | Test E rating (% disease control) [1, 5] | Test D rating (% disease control) [2, 5] | Test C rating (% disease control) (Septoria tritici; [5]) | further results
Cn1nc(C(F)F)c(C(=O)N(Cc2ncc(-n3ccc(C(F)(F)F)n3)cc2Br)C2CC2)c1F [compound 91] | 73% | 98% | 100% | – | – | – | –
CC(c1ncc(-n2cc(Br)cn2)cc1Cl)N(C(=O)c1c(C(F)F)nn(C)c1F)C1CC1 (stereo not shown) [compound 78] | 92% | 94% | 100% | – | – | – | –
CC(c1ccc(Cl)c(-n2ccc(C(F)(F)F)n2)c1)N(C(=O)c1c(C(F)F)nn(C)c1F)C1CC1 (stereo not shown) [compound 74] | – | – | – | – | – | – | Test E rating (% disease control) [1, 4]: 93%; Test D rating (% disease control) [2, 4]: 27%; Test C rating (% disease control) (Septoria tritici; [4]): 99%
CC(c1cccc(-n2ccc(C(F)(F)F)n2)c1Cl)N(C(=O)c1cn(C)nc1C(F)F)C1CC1 (stereo not shown) [compound 77] | 64% | 9% | 82% | – | – | – | –
Cn1nc(C(F)F)c(C(=O)N(Cc2cc(-n3ccc(C(F)(F)F)n3)ncc2Cl)C2CC2)c1F [compound 92] | 0% | 67% | – | – | – | – | –
Cn1cc(C(=O)N(Cc2cc(Cl)cc(-n3ccc(C(F)(F)F)n3)c2)C2CC2)c(C(F)F)n1 [compound 112] | – | – | – | 40% | 54% | 94% | –
Cn1nc(C(F)F)c(C(=O)N(Cc2cccc(-n3ccc(C(F)(F)F)n3)c2Cl)C2CC2)c1F [compound 136] | – | – | – | 87% | 99% | 100% | –
CC(C)c1ccc(-n2ccc(C(F)(F)F)n2)cc1CN(C(=O)c1c(C(F)F)nn(C)c1F)C1CC1 [compound 88] | – | – | – | 98% | 99% | 94% | –
CC(c1cc(Cl)cc(-n2ccc(C(F)(F)F)n2)c1)N(C(=O)c1c(C(F)F)nn(C)c1F)C1CC1 (stereo not shown) [compound 54] | – | – | – | 93% | 99% | 96% | –
C=C(C)c1cc(CN(C(=O)c2c(C(F)F)nn(C)c2F)C2CC2)ccc1-n1ccc(C(F)(F)F)n1 [compound 102] | 13% | 98% | 100% | – | – | – | –
CC(C)c1cc(CN(C(=O)c2c(C(F)F)nn(C)c2F)C2CC2)ccc1-n1ccc(C(F)(F)F)n1 [compound 116] | 69% | 98% | – | – | – | – | –
Cc1cc(CN(C(=O)c2c(C(F)F)nn(C)c2F)C2CC2)ccc1-n1ccc(C(F)(F)F)n1 [compound 93] | 69% | 99% | 100% | – | – | – | –
CC(c1ncc(-n2ccc(C(F)(F)F)n2)cc1Cl)N(C(=O)c1c(C(F)F)nn(C)c1F)C1CC1 (stereo not shown) [compound 103] | 94% | 98% | 98% | – | – | – | –
CC(c1ncc(-n2ccc(Br)n2)cc1Cl)N(C(=O)c1c(C(F)F)nn(C)c1F)C1CC1 (racemic) [compound 89] | 81% | 99% | 100% | – | – | – | –
CC(c1ncc(-n2ccc(-c3ccccc3)n2)cc1Cl)N(C(=O)c1c(C(F)F)nn(C)c1F)C1CC1 (racemic) [compound 90] | 86% | 99% | 99% | – | – | – | –
COc1ccc(-n2ccc(C(F)(F)F)n2)cc1CN(C(=O)c1c(C(F)F)nn(C)c1F)C1CC1 [compound 113] | – | – | – | 97% | 99% | 100% | –

SMILES | Test E rating (% disease control) [1, 3] | Test D rating (% disease control) [2, 3] | Test C rating (% disease control) (Septoria tritici; [3]) | Test E rating (% disease control) [1, 5] | Test D rating (% disease control) [2, 5] | Test C rating (% disease control) (Septoria tritici; [5]) | further results
Cc1ccc(CN(C(=O)c2c(C(F)F)nn(C)c2F)C2CC2)cc1-n1ccc(C(F)(F)F)n1 [compound 87] | – | – | – | 92% | 80% | 98% | –
Cn1cc(C(=O)N(Cc2ncc(-n3ccc(C(F)(F)F)n3)cc2Br)C2CC2)c(C(F)F)n1 [compound 16] | – | – | – | 56% | 67% | 100% | –
Cn1nc(C(F)F)c(C(=O)N(Cc2cccc(-n3ccc(C(F)(F)F)n3)c2C(F)(F)F)C2CC2)c1F [compound 137] | – | – | – | 87% | 98% | 94% | –
Cn1nc(C(F)F)c(C(=O)N(Cc2ccc(-n3ccc(C(F)(F)F)n3)c(C(F)(F)F)c2)C2CC2)c1F [compound 95] | 27% | 67% | 87% | – | – | – | –
Cn1cc(-c2cnc(CN(C(=O)c3c(C(F)F)nn(C)c3F)C3CC3)c(Br)c2)cn1 [compound 110] | – | – | – | 40% | 94% | 90% | –
Cn1cc(C(=O)N(Cc2cc(-n3ccc(C(F)(F)F)n3)ncc2Cl)C2CC2)c(C(F)F)n1 [compound 75] | 0% | 45% | 24% | – | – | – | –
COc1cc(CN(C(=O)c2c(C(F)F)nn(C)c2F)C2CC2)ccc1-n1ccc(C(F)(F)F)n1 [compound 96] | 73% | 99% | 100% | – | – | – | –
Cn1nc(C(F)F)c(C(=O)N(Cc2ncc(-n3ccc(C(F)(F)F)n3)cc2Cl)C2CC2)c1F [compound 122] | 87% | 99% | 96% | – | – | – | –
CC(c1ncc(-n2cccn2)cc1Cl)N(C(=O)c1c(C(F)F)nn(C)c1F)C1CC1 (racemic) [compound 101] | 79% | 82% | 96% | – | – | – | –
Cc1ccc(C(C)N(C(=O)c2c(C(F)F)nn(C)c2F)C2CC2)cc1-n1ccc(C(F)(F)F)n1 (stereo not shown) [compound 73] | – | – | – | – | – | – | Test E rating (% disease control) [1, 4]: 90%; Test D rating (% disease control) [2, 4]: 85%; Test C rating (% disease control) (Septoria tritici; [4]): 99%
Cc1cc(-n2ccc(C(F)(F)F)n2)cnc1CN(C(=O)c1c(C(F)F)nn(C)c1F)C1CC1 [compound 81] | 81% | 98% | 94% | – | – | – | –
CC(c1cccc(-n2ccc(C(F)(F)F)n2)c1Cl)N(C(=O)c1c(C(F)F)nn(C)c1F)C1CC1 (stereo not shown) [compound 79] | – | – | – | 98% | 74% | 99% | –
C=C(C)c1ccc(-n2ccc(C(F)(F)F)n2)cc1C(C)N(C(=O)c1c(C(F)F)nn(C)c1F)C1CC1 (racemic) [compound 123] | – | – | – | 93% | 92% | 100% | –
Cn1nc(C(F)F)c(C(=O)N(Cc2ncc(-n3ccc(C(F)(F)F)n3)cc2C2CC2)C2CC2)c1F [compound 114] | 92% | 100% | 100% | – | – | – | –
CC(C)c1ccc(-n2ccc(C(F)(F)F)n2)cc1C(C)N(C(=O)c1cn(C)nc1C(F)F)C1CC1 (stereo not shown) [compound 82] | – | – | – | 87% | 0% | 88% | –
